Reference: ChEMBL document CHEMBL5154935, “Design, Synthesis, and Biological Evaluation of Novel Evodiamine Derivatives as Potential Antihepatocellular Carcinoma Agents” (J Med Chem, 2022)
pIC50: −log10 of the molar value. Activity calls are given as the source filed them. The rule behind the calls is not given here.

Tests used:
Huh-7 [1] = assay: Induction of cell cycle arrest in human Huh-7 cells assessed as accumulation at G1 phase at 40 nM treated for 24 hrs by PI staining based flow cytometry (reference value: 60.77 %); assay type: functional
SK-HEP1 [2] = assay: Induction of apoptosis in human SK-Hep1 cells assessed as cell shrinkage incubated for 24 hrs by Giemsa staining based microscopy; assay type: functional; conditions: dose 12-60 nM, DDE = dose-dependent effect
[3] = Induction of apoptosis in rat HSC-T6 cells assessed as viable cells at 80 nM pretreated with TGFbeta-1 for 1 day followed by compound addition and measured after 24 hrs by flow cytometry (reference value: 97.5 %); assay type: functional; conditions: read-out: Activity
Huh-7 [4] = assay: Antiproliferative activity against human Huh-7 cells assessed as inhibition of cell viability by MTT assay; assay type: functional, cell-based; conditions: time 24-72 hrs, TDE = time-dependent effect
[5] = biological target: DNA topoisomerase 2-alpha (Homo sapiens) (UniProt P11388); assay: Inhibition of human Top2-alpha expressed in baculovirus assessed as inhibition of relaxation of supercoiled pBR322 plasmid DNA at 100 uM incubated for 30 mins in presence of ATP by ethidium bromide staining based agarose gel electrophoresis analysis relative to control
DNA topoisomerase 2-alpha (Homo sapiens), sequence (P11388 whole entry): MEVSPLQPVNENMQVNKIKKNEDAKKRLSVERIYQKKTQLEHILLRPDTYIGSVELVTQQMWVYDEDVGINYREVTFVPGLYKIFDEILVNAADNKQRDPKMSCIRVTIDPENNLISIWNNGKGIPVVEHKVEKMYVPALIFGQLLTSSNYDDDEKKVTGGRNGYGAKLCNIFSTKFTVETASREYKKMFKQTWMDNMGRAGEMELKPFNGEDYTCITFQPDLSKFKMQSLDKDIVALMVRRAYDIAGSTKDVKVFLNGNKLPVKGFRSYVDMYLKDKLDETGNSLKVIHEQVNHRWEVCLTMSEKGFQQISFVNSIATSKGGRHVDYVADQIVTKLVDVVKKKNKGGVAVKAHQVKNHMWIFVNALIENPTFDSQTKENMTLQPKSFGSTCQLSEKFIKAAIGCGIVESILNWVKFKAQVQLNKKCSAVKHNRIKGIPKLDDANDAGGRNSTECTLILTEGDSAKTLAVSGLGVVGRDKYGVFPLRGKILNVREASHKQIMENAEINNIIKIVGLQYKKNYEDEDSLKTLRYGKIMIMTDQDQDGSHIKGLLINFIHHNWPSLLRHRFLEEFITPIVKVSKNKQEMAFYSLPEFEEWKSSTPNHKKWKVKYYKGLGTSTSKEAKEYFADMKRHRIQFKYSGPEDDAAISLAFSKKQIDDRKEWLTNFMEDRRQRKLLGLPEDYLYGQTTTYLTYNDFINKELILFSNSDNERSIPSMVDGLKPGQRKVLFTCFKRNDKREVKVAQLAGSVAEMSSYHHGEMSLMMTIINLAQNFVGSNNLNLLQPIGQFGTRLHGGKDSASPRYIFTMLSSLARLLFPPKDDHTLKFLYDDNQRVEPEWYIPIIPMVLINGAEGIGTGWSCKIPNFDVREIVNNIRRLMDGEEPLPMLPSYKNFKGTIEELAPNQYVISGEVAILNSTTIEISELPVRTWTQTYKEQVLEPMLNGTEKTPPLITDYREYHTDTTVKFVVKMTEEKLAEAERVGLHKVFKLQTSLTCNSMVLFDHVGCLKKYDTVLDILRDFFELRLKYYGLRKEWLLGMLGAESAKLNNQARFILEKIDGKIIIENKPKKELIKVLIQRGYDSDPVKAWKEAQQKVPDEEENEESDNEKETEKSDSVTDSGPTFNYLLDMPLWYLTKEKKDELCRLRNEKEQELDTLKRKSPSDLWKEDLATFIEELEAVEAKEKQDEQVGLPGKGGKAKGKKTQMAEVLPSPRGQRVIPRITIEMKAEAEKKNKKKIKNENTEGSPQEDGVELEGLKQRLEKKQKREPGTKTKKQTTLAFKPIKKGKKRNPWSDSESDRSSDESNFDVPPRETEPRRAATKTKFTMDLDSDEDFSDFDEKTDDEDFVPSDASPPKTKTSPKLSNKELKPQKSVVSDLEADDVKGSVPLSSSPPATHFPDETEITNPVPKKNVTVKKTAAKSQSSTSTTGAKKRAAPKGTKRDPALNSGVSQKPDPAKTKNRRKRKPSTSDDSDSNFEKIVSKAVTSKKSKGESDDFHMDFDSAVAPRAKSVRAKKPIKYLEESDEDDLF

SK-HEP1 [6] = assay: Induction of apoptosis in human SK-Hep1 cells assessed as cell membrane permeability by measuring blue fluorescence incubated for 24 hrs by Hoechst staining based microscopy; assay type: functional; conditions: dose 12-60 nM, DDE = dose-dependent effect
HepG2 = assay: Antiproliferative activity against human HepG2 cells treated for 72 hrs by MTT assay; assay type: functional, cell-based; conditions: HepG2, 72 h
Huh-7 [7] = assay: Induction of apoptosis in human Huh-7 cells assessed as viable cells at 80 nM incubated for 24 hrs by annexin V-FITC/PI staining flow cytometry (reference value: 97.3 %); assay type: functional; conditions: read-out: Activity
[8] = biological target: T1, DNA topoisomerase 1 (Homo sapiens) (UniProt P11387); assay: Inhibition of Top1 (unknown origin) assessed as inhibition of relaxation of supercoiled pBR322 plasmid DNA at 12.5 uM incubated for 25 mins by ethidium bromide staining based agarose gel electrophoresis analysis relative to control
T1 sequence (whole entry): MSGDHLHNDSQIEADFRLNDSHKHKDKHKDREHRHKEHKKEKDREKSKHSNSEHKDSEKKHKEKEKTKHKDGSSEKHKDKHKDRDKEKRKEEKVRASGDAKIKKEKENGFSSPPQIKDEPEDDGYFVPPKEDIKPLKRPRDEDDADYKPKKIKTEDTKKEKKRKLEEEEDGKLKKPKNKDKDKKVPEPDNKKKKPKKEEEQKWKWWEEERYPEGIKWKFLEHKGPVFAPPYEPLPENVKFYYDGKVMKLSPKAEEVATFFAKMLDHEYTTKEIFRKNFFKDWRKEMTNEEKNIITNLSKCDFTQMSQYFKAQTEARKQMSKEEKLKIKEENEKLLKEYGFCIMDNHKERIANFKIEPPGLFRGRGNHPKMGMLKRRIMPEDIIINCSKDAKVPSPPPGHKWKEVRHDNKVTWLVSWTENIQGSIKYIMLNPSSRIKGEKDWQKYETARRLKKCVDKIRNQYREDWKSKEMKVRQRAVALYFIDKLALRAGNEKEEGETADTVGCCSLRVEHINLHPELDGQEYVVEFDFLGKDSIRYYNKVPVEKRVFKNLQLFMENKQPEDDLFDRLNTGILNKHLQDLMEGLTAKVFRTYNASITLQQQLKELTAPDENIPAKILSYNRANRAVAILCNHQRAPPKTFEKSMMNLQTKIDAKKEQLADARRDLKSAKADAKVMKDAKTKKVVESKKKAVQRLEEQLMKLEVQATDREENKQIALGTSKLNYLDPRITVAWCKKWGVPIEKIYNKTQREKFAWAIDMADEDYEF

[9] = Induction of apoptosis in rat HSC-T6 cells assessed as necrotic cells at 80 nM pretreated with TGFbeta-1 for 1 day followed by compound addition and measured after 24 hrs by flow cytometry (reference value: 0.56 %); assay type: functional
SK-HEP1 [10] = assay: Induction of cell cycle arrest in human SK-Hep1 cells assessed as accumulation at G2 phase at 80 nM treated for 24 hrs by PI staining based flow cytometry (reference value: 16.55 %); assay type: functional
Huh-7 [11] = assay: Induction of apoptosis in human Huh-7 cells assessed as early apoptotic cells at 40 nM incubated for 24 hrs by annexin V-FITC/PI staining flow cytometry (reference value: 0.33 %); assay type: functional
SK-HEP1 [12] = assay: Induction of apoptosis in human SK-Hep1 cells assessed as viable cells at 80 nM incubated for 24 hrs by annexin V-FITC/PI staining flow cytometry (reference value: 97.8 %); assay type: functional; conditions: read-out: Activity
SK-HEP1 [13] = assay: Induction of cell cycle arrest in human SK-Hep1 cells assessed as accumulation at G1 phase at 80 nM treated for 24 hrs by PI staining based flow cytometry (reference value: 58.47 %); assay type: functional
[14] = Induction of apoptosis in rat HSC-T6 cells assessed as early apoptotic cells at 40 nM pretreated with TGFbeta-1 for 1 day followed by compound addition and measured after 24 hrs by flow cytometry (reference value: 0.17 %); assay type: functional
Huh-7 [15] = assay: Inhibition of cell migration in human Huh-7 cells incubated for 24 hrs by scratch wound healing assay; assay type: functional, cell-based; conditions: dose 3-18 nM, DDE = dose-dependent effect
Huh-7 [16] = assay: Induction of cell cycle arrest in human Huh-7 cells assessed as accumulation at S phase at 40 nM treated for 24 hrs by PI staining based flow cytometry (reference value: 23.33 %); assay type: functional
HSC-T6 = assay: Antiproliferative activity against TGF-beta-1-stimulated rat HSC-T6 cells assessed as suppression of cell proliferation at 0.70 to 60 uM preincubated with TGFbeta-1 for 1 day followed by compound addition and measured after 48 hrs; assay type: functional, cell-based; conditions: dose 0.7-60 µM
Huh-7 [17] = assay: Induction of apoptosis in human Huh-7 cells assessed as necrotic cells at 40 nM incubated for 24 hrs by annexin V-FITC/PI staining flow cytometry (reference value: 1.08 %); assay type: functional
[18] = Induction of apoptosis in rat HSC-T6 cells assessed as late apoptotic cells at 40 nM pretreated with TGFbeta-1 for 1 day followed by compound addition and measured after 24 hrs by flow cytometry (reference value: 1.76 %); assay type: functional
SK-HEP1 [19] = assay: Inhibition of cell migration in human SK-HEP1 cells incubated for 24 hrs by scratch wound healing assay; assay type: functional, cell-based; conditions: dose 3-18 nM, DDE = dose-dependent effect
Huh-7 [20] = assay: Induction of apoptosis in human Huh-7 cells assessed as chromatin agglutination incubated for 24 hrs by Giemsa staining based microscopy; assay type: functional, cell-based; conditions: dose 12-60 nM, DDE = dose-dependent effect
[21] = Induction of apoptosis in rat HSC-T6 cells assessed as late apoptotic cells at 80 nM pretreated with TGFbeta-1 for 1 day followed by compound addition and measured after 24 hrs by flow cytometry (reference value: 1.76 %); assay type: functional
SK-HEP1 [22] = assay: Induction of apoptosis in human SK-Hep1 cells assessed as late apoptotic cells at 10 nM incubated for 24 hrs by annexin V-FITC/PI staining flow cytometry (reference value: 1.13 %); assay type: functional
SK-HEP1 [23] = assay: Induction of apoptosis in human SK-Hep1 cells assessed as early apoptotic cells at 80 nM incubated for 24 hrs by annexin V-FITC/PI staining flow cytometry (reference value: 0.30 %); assay type: functional
[24] = biological target: T1, DNA topoisomerase 1 (Homo sapiens); assay: Inhibition of Top1 (unknown origin) assessed as inhibition of relaxation of supercoiled pBR322 plasmid DNA at 50 uM incubated for 25 mins by ethidium bromide staining based agarose gel electrophoresis analysis relative to control

Structure (SMILES) | Activity (Huh-7 [1]) [%] | Activity (SK-HEP1 [2]) | viability at 0.08 µM [3] [%] | Activity (Huh-7 [4]) | inhibition [5] [%] | Activity (SK-HEP1 [6]) | pIC50 (HepG2) | viability at 0.08 µM (Huh-7 [7]) [%] | inhibition [8] [%] | Activity [9] [%] | Activity (SK-HEP1 [10]) [%] | Activity (Huh-7 [11]) [%] | viability at 0.08 µM (SK-HEP1 [12]) [%] | Activity (SK-HEP1 [13]) [%] | Activity [14] [%] | inhibition (Huh-7 [15]) | Activity (Huh-7 [16]) [%] | Activity (HSC-T6) | Activity (Huh-7 [17]) [%] | Activity [18] [%] | other results
CC(=O)Oc1ccc2[nH]c3c(c2c1)CCN1C(=O)c2cc(F)cc(F)c2N(c2cccc(F)c2)C31 (configuration not stated) | 28.25 | Dde | 41.7 | Tde | 63.7 | Dde | 6.74 | 59.7 | 56.1 | 4.44 | 76.35 | 1.37 | 84 | 19.76 | 0.32 | Dde | 21.48 | Active | 10.1 | 12.8 | inhibition (SK-HEP1 [19]): Dde; Activity (Huh-7 [20]): Dde; Activity [21]: 53%; Activity (SK-HEP1 [22]): 7.45%; Activity (SK-HEP1 [23]): 13.5%; inhibition [24]: 94%
O=C1c2cc(F)cc(F)c2N(c2cccc(F)c2)C2c3[nH]c4ccc(O)cc4c3CCN12 (configuration not stated) | 15.01 | Dde | 83.8 | Tde | 67 | Dde | 7.05 | 58.4 | 43.9 | 3.62 | 83.92 | 2.51 | 73.4 | 11.58 | 0.14 | Dde | 21.24 | Active | 4.51 | 10.4 | inhibition (SK-HEP1 [19]): Dde; Activity (Huh-7 [20]): Dde; Activity [21]: 41.8%; Activity (SK-HEP1 [22]): 3.83%; Activity (SK-HEP1 [23]): 0.75%; inhibition [24]: 92.5%
